From PubChem BioAssay (NCI)
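96-well plates; 48 h exposure; 5 concentrations. Endpoints by linear interpolation between flanking doses. Not reached: highest tested concentration assigned. The concentration for 50% growth inhibition is given as GI50. Definition used: TGI = concentration required for complete inhibition of growth.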

Assays:
Assay in all cases: NCI-60 cell line screen, 48 h
[1] = tested on: 786-0 renal
[2] = tested on: A498 renal
[3] = tested on: A549 NSCLC
[4] = tested on: ACHN renal
[5] = tested on: BT-549 breast
[6] = tested on: CAKI-1 renal
[7] = tested on: CCRF-CEM leukemia
[8] = tested on: COLO 205 colon
[9] = tested on: DU-145 prostate
[10] = tested on: EKVX NSCLC
[11] = tested on: HCC-2998 colon
[12] = tested on: HCT-116 colon
[13] = tested on: HCT-15 colon
[14] = tested on: HL-60(TB) leukemia
[15] = tested on: HOP-62 NSCLC
[16] = tested on: HOP-92 NSCLC
[17] = tested on: HS 578T breast
[18] = tested on: HT29 colon
[19] = tested on: IGROV1 ovarian
[20] = tested on: K-562 leukemia
[21] = tested on: KM12 colon
[22] = tested on: LOX IMVI melanoma
[23] = tested on: M14 melanoma
[24] = tested on: MALME-3M melanoma
[25] = tested on: MCF7 breast
[26] = tested on: MDA-MB-231 breast
[27] = tested on: MDA-MB-435
[28] = tested on: MOLT-4 leukemia
[29] = tested on: NCI-H226 lung
[30] = tested on: NCI-H23 lung
[31] = tested on: NCI-H460 lung
[32] = tested on: NCI-H522 lung
[33] = tested on: NCI/ADR-RES ovarian
[34] = tested on: OVCAR-3 ovarian
[35] = tested on: OVCAR-4 ovarian
[36] = tested on: OVCAR-5 ovarian
[37] = tested on: OVCAR-8 ovarian
[38] = tested on: PC-3 prostate
[39] = tested on: RPMI-8226 leukemia
[40] = tested on: RXF 393 renal
[41] = tested on: SF-268 CNS
[42] = tested on: SF-295 CNS
[43] = tested on: SF-539 CNS
[44] = tested on: SK-MEL-2 melanoma
[45] = tested on: SK-MEL-28 melanoma
[46] = tested on: SK-MEL-5 melanoma
[47] = tested on: SK-OV-3 ovarian
[48] = tested on: SN12C renal
[49] = tested on: SNB-19 CNS
[50] = tested on: SNB-75 CNS
[51] = tested on: SR leukemia
[52] = tested on: SW-620 colon
[53] = tested on: T-47D breast
[54] = tested on: TK-10 renal
[55] = tested on: U251 CNS
[56] = tested on: UACC-257 melanoma
[57] = tested on: UACC-62 melanoma
[58] = tested on: UO-31 renal

SMILES: Cc1ccc2nc3ccccc3c(NCc3ccccc3)c2c1
- GI50 [1]: 2240 nM
- TGI [1]: 8.37 µM
- GI50 [2]: 1240 nM
- TGI [2]: 6.9 µM
- GI50 [3]: 2630 nM
- TGI [3]: 10.9 µM
- GI50 [4]: 2390 nM
- TGI [4]: 8.88 µM
- GI50 [5]: 5.13 µM
- TGI [5]: 11.7 µM
- GI50 [6]: 2390 nM
- TGI [6]: 9.26 µM
- GI50 [7]: 2120 nM
- TGI [7]: 50 µM
- GI50 [8]: 1470 nM
- TGI [8]: 6.46 µM
- GI50 [9]: 2560 nM
- TGI [9]: 8.83 µM
- GI50 [10]: 5.07 µM
- TGI [10]: 12.9 µM
- GI50 [11]: 1860 nM
- TGI [11]: 6.86 µM
- GI50 [12]: 1440 nM
- TGI [12]: 6.62 µM
- GI50 [13]: 2010 nM
- TGI [13]: 7.64 µM
- GI50 [14]: 3.49 µM
- TGI [14]: 12.7 µM
- GI50 [15]: 3.77 µM
- TGI [15]: 12.5 µM
- GI50 [16]: 1340 nM
- TGI [16]: 7.56 µM
- GI50 [17]: 5.14 µM
- TGI [17]: 15.4 µM
- GI50 [18]: 1540 nM
- TGI [18]: 7.43 µM
- GI50 [19]: 2010 nM
- TGI [19]: 9.2 µM
- GI50 [20]: 1460 nM
- TGI [20]: 8.78 µM
- GI50 [21]: 5.13 µM
- TGI [21]: 12.6 µM
- GI50 [22]: 1670 nM
- TGI [22]: 6.15 µM
- GI50 [23]: 5.83 µM
- TGI [23]: 13 µM
- GI50 [24]: 4.25 µM
- TGI [24]: 11 µM
- GI50 [25]: 1800 nM
- TGI [25]: 7.93 µM
- GI50 [26]: 3.33 µM
- TGI [26]: 10.5 µM
- GI50 [27]: 4.72 µM
- TGI [27]: 10.8 µM
- GI50 [28]: 1500 nM
- TGI [28]: 8.73 µM
- GI50 [29]: 3.59 µM
- TGI [29]: 12 µM
- GI50 [30]: 3.69 µM
- TGI [30]: 11.9 µM
- GI50 [31]: 2070 nM
- TGI [31]: 7.44 µM
- GI50 [32]: 2720 nM
- TGI [32]: 12.6 µM
- GI50 [33]: 2460 nM
- TGI [33]: 10.6 µM
- GI50 [34]: 3.09 µM
- TGI [34]: 9.97 µM
- GI50 [35]: 2640 nM
- TGI [35]: 9.42 µM
- GI50 [36]: 2810 nM
- TGI [36]: 9.92 µM
- GI50 [37]: 2320 nM
- TGI [37]: 11.1 µM
- GI50 [38]: 1940 nM
- TGI [38]: 9.38 µM
- GI50 [39]: 1560 nM
- TGI [39]: 6.45 µM
- GI50 [40]: 1420 nM
- TGI [40]: 5.4 µM
- GI50 [41]: 3.83 µM
- TGI [41]: 10.6 µM
- GI50 [42]: 2280 nM
- TGI [42]: 8.58 µM
- GI50 [43]: 2430 nM
- TGI [43]: 9.07 µM
- GI50 [44]: 7.79 µM
- TGI [44]: 16 µM
- GI50 [45]: 6.67 µM
- TGI [45]: 14 µM
- GI50 [46]: 4.46 µM
- TGI [46]: 10.5 µM
- GI50 [47]: 6.05 µM
- TGI [47]: 12.9 µM
- GI50 [48]: 2410 nM
- TGI [48]: 9.15 µM
- GI50 [49]: 4.01 µM
- TGI [49]: 11 µM
- GI50 [50]: 5.68 µM
- TGI [50]: 11.9 µM
- GI50 [51]: 1310 nM
- TGI [51]: 3.62 µM
- GI50 [52]: 1760 nM
- TGI [52]: 7.85 µM
- GI50 [53]: 7 µM
- TGI [53]: 18.8 µM
- GI50 [54]: 6.43 µM
- TGI [54]: 13.9 µM
- GI50 [55]: 2490 nM
- TGI [55]: 10.2 µM
- GI50 [56]: 7.77 µM
- TGI [56]: 17.8 µM
- GI50 [57]: 5.9 µM
- TGI [57]: 12.8 µM
- GI50 [58]: 1440 nM
- TGI [58]: 7.5 µM
